Key:
Type in all cases: in vivo
[1] = test system: morningglory (Ipomoea spp.); experiment: Test A postemergence, morningglory; details: 0 to 100 scale (0 no effect, 100 complete control)
Summary of the method: (§1)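 Greenhouse pre/postemergence test, loam–sand soil. Postemergence plants one- to two-leaf, 2–10 cm. Visual injury rating ~10 d after treatment, 0–100 vs untreated.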

[2] = test system: corn (Zea mays); experiment: Test A preemergence, corn; details: 0 to 100 scale (0 no effect, 100 complete control)
Summary of the method: as §1

[3] = test system: velvetleaf (Abutilon theophrasti); experiment: Test A postemergence, velvetleaf; details: 0 to 100 scale (0 no effect, 100 complete control)
Summary of the method: as §1

[4] = test system: large crabgrass (Digitaria sanguinalis); experiment: Test A postemergence, large crabgrass; details: 0 to 100 scale (0 no effect, 100 complete control)
Summary of the method: as §1

[5] = test system: pigweed (Amaranthus retroflexus); experiment: Test A preemergence, pigweed; details: 0 to 100 scale (0 no effect, 100 complete control)
Summary of the method: as §1

[6] = test system: barnyardgrass (Echinochloa crus-galli); experiment: Test B flooded paddy test, barnyardgrass; details: Flood
Summary of the method: (§2)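 Step one: raise plants to 2 leaves. Step two: flood pots 3 cm over the soil and apply compound into the water, keeping this depth. Step three: after 13–15 greenhouse days, score visually versus controls, 0–100, where 100 means complete control.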

[7] = test system: ducksalad (Heteranthera limosa); experiment: Test B flooded paddy test, ducksalad; details: Flood, scale 0 to 100
Summary of the method: as §2

[8] = test system: wheat (Triticum aestivum); experiment: Test A postemergence, wheat; details: 0 to 100 scale (0 no effect, 100 complete control)
Summary of the method: as §1

[9] = test system: rice (Oryza sativa); experiment: Test B flooded paddy test, rice; details: Flood, scale 0 to 100
Summary of the method: as §2

[10] = test system: barnyardgrass (Echinochloa crus-galli); experiment: Test A postemergence, barnyardgrass; details: 0 to 100 scale (0 no effect, 100 complete control)
Summary of the method: as §1

[11] = test system: umbrella sedge (Cyperus difformis); experiment: Test B flooded paddy test, umbrella sedge; details: Flood, scale 0 to 100
Summary of the method: as §2

[12] = test system: giant foxtail (Setaria faberi); experiment: Test A postemergence, giant foxtail; details: 0 to 100 scale (0 no effect, 100 complete control)
Summary of the method: as §1

[13] = test system: large crabgrass (Digitaria sanguinalis); experiment: Test A preemergence, large crabgrass; details: 0 to 100 scale (0 no effect, 100 complete control)
Summary of the method: as §1

[14] = test system: barnyardgrass (Echinochloa crus-galli); experiment: Test A preemergence, barnyardgrass; details: 0 to 100 scale (0 no effect, 100 complete control)
Summary of the method: as §1

[15] = test system: corn (Zea mays); experiment: Test A postemergence, corn; details: 0 to 100 scale (0 no effect, 100 complete control)
Summary of the method: as §1

[16] = test system: pigweed (Amaranthus retroflexus); experiment: Test A postemergence, pigweed; details: 0 to 100 scale (0 no effect, 100 complete control)
Summary of the method: as §1

[17] = test system: morningglory (Ipomoea spp.); experiment: Test A preemergence, morningglory; details: 0 to 100 scale (0 no effect, 100 complete control)
Summary of the method: as §1

[18] = test system: velvetleaf (Abutilon theophrasti); experiment: Test A preemergence, velvetleaf; details: 0 to 100 scale (0 no effect, 100 complete control)
Summary of the method: as §1

[19] = test system: giant foxtail (Setaria faberi); experiment: Test A preemergence, giant foxtail; details: 0 to 100 scale (0 no effect, 100 complete control)
Summary of the method: as §1

[20] = test system: wheat (Triticum aestivum); experiment: Test A preemergence, wheat; details: 0 to 100 scale (0 no effect, 100 complete control)
Summary of the method: as §1

CC1(C)CC(S(=O)(=O)Cc2c(C(F)(F)F)nc3ccon3c2=O)=NO1 [Compound 42]
Plant response rating, Morningglory ([1]; 125 g ai/ha): 0 | Plant response rating, Morningglory ([1]; 500 g ai/ha): 0 | Plant response rating, Corn ([2]; 125 g ai/ha): 0 | Plant response rating, Corn ([2]; 500 g ai/ha): 0 | Plant response rating, Velvetleaf ([3]; 125 g ai/ha): 0 | Plant response rating, Velvetleaf ([3]; 500 g ai/ha): 0 | Plant response rating, Crabgrass, Large ([4]; 125 g ai/ha): 50 | Plant response rating, Crabgrass, Large ([4]; 500 g ai/ha): 70 | Plant response rating, Pigweed ([5]; 125 g ai/ha): 0 | Plant response rating, Pigweed ([5]; 500 g ai/ha): 30 | Plant response rating, Barnyardgrass ([6]; 31 g ai/ha, scale 0 to 100): 0 | Plant response rating, Barnyardgrass ([6]; 62 g ai/ha, scale 0 to 100): 0 | Plant response rating, Barnyardgrass ([6]; 125 g ai/ha, scale 0 to 100): 0 | Plant response rating, Barnyardgrass ([6]; 250 g ai/ha, scale 0 to 100 (0 no effect, 100 complete control)): 0 | Plant response rating, Ducksalad ([7]; 31 g ai/ha): 0 | Plant response rating, Ducksalad ([7]; 62 g ai/ha): 0 | Plant response rating, Ducksalad ([7]; 125 g ai/ha): 0 | Plant response rating, Ducksalad ([7]; 250 g ai/ha): 0 | Plant response rating, Wheat ([8]; 125 g ai/ha): 0 | Plant response rating, Wheat ([8]; 500 g ai/ha): 20 | Plant response rating, Rice ([9]; 31 g ai/ha): 0 | Plant response rating, Rice ([9]; 62 g ai/ha): 0 | Plant response rating, Rice ([9]; 125 g ai/ha): 0 | Plant response rating, Rice ([9]; 250 g ai/ha): 0 | Plant response rating, Barnyardgrass ([10]; 125 g ai/ha): 70 | Plant response rating, Barnyardgrass ([10]; 500 g ai/ha): 80 | Plant response rating, Sedge, Umbrella ([11]; 31 g ai/ha): 0 | Plant response rating, Sedge, Umbrella ([11]; 62 g ai/ha): 0 | Plant response rating, Sedge, Umbrella ([11]; 125 g ai/ha): 0 | Plant response rating, Sedge, Umbrella ([11]; 250 g ai/ha): 0 | Plant response rating, Foxtail, Giant ([12]; 125 g ai/ha): 60 | Plant response rating, Foxtail, Giant ([12]; 500 g ai/ha): 80 | Plant response rating, Crabgrass, Large ([13]; 125 g ai/ha): 50 | Plant response rating, Crabgrass, Large ([13]; 500 g ai/ha): 80 | Plant response rating, Barnyardgrass ([14]; 125 g ai/ha): 30 | Plant response rating, Barnyardgrass ([14]; 500 g ai/ha): 80 | Plant response rating, Corn ([15]; 125 g ai/ha): 0 | Plant response rating, Corn ([15]; 500 g ai/ha): 0 | Plant response rating, Pigweed ([16]; 125 g ai/ha): 0 | Plant response rating, Pigweed ([16]; 500 g ai/ha): 10 | Plant response rating, Morningglory ([17]; 125 g ai/ha): 0 | Plant response rating, Morningglory ([17]; 500 g ai/ha): 0 | Plant response rating, Velvetleaf ([18]; 125 g ai/ha): 0 | Plant response rating, Velvetleaf ([18]; 500 g ai/ha): 0 | Plant response rating, Foxtail, Giant ([19]; 125 g ai/ha): 60 | Plant response rating, Foxtail, Giant ([19]; 500 g ai/ha): 90 | Plant response rating, Wheat ([20]; 125 g ai/ha): 0 | Plant response rating, Wheat ([20]; 500 g ai/ha): 0
